Converted amounts (≈) assume the structure as drawn.

Conditions in one data set: not given
For the compound `Cc1ccc(C(=O)O)cc1C`, the solubility (in general, the concentration that dissolves in the medium under given conditions) is 0.86 mM (≈ 129 µg/mL).

Regarding `O=C(O)c1ccc(Br)cc1`, the solubility worked out at 0.298 mM (≈ 60 µg/mL).

Take `O=C(O)c1ccc(Cl)c(Cl)c1`: the solubility came to 0.32 mM (≈ 61.1 µg/mL).

For the compound `CNC(=O)O/N=C1\[C@@H](Cl)[C@@H]2C[C@H](C#N)[C@H]1C2`, the solubility came out at 8.28 mM (≈ 2000 µg/mL).

`Cc1cc(C)c(C)c(C)c1C`: the solubility is 0.105 mM (≈ 15.5 µg/mL).

`O=C(O)c1cc(Cl)cc(Cl)c1` had a solubility of 0.77 mM (≈ 147 µg/mL).

Consider `O=C(O)c1c(O)cccc1O`, for which the solubility was 62 mM (≈ 9560 µg/mL).

Consider `Nc1ccc(-c2ccc(Cl)cc2)cc1`, for which the solubility was 0.023 mM (≈ 4.68 µg/mL).

`CCc1cccc(CC)c1N`: the solubility was 4.49 mM (≈ 670 µg/mL).

Compound `Nc1nc(=O)c2[nH]c(=O)c(=O)[nH]c2[nH]1` returned a solubility of 0.00683 mM (≈ 1.33 µg/mL).

Consider `CNC(=O)Oc1cccc(N=CN(C)C)c1`, for which the solubility amounted to 4.52 mM (≈ 1000 µg/mL).

`COC(=O)c1cc(O)c(O)c(O)c1` returned a solubility of 57.6 mM (≈ 10600 µg/mL).

The same data set, now with this note: 20 °C.
Regarding `CCOC(=O)C(c1c(O)c2ccccc2oc1=O)c1c(O)c2ccccc2oc1=O`, the solubility was 0.375 mM (≈ 153 µg/mL).

On to `Clc1ccc2c(c1)Oc1cc(Cl)c(Cl)c(Cl)c1O2`, for which the solubility came out at 1.34e-06 mM (≈ 0.00043 µg/mL).

As to `CCCCOC(=O)CCC`, the solubility worked out at 3.47 mM (≈ 500 µg/mL).

`C=CC(=O)Oc1c(Br)cc(Cl)c2cccnc12` yielded a solubility of 0.0192 mM (≈ 6 µg/mL).

`Clc1ccc(Cl)c(-c2cc(Cl)c(Cl)c(Cl)c2)c1` came in with a solubility of 4.84e-05 mM (≈ 0.0158 µg/mL).

For the compound `O=C(O)C1(O)c2ccccc2-c2ccc(Cl)cc21` (stereo not given), the solubility came to 0.076 mM (≈ 19.8 µg/mL).

`Cc1ccccc1OCC(O)CO` (stereo not given) came in with a solubility of 64.8 mM (≈ 11800 µg/mL).

On to `CCCOC(=O)c1ccccc1C(=O)OCCC`, for which the solubility was 0.432 mM (≈ 108 µg/mL).

On to `O=C1C[C@@H](c2ccc(O)c(O)c2)Oc2cc(O)cc(O)c21`, for which the solubility was 0.243 mM (≈ 70 µg/mL).

Compound `Cc1nnc(-c2ccccc2)c(=O)n1N` yielded a solubility of 8.9 mM (≈ 1800 µg/mL).

`O=C(O)[C@H]1CCCC[C@@H]1C(=O)O` (relative stereo) returned a solubility of 11.6 mM (≈ 2000 µg/mL).

As to `O=c1ccc2ccccc2o1`, the solubility came to 13 mM (≈ 1900 µg/mL).

`Oc1cccc2ncccc12` returned a solubility of 2.87 mM (≈ 417 µg/mL).

As to `CNCC(=O)O`, the solubility was found to be 3370 mM (≈ 300000 µg/mL).

As to `COC(=O)C(C)N(C(=O)c1ccco1)c1c(C)cccc1C` (stereo not given), the solubility stood at 0.763 mM (≈ 230 µg/mL).

In turn, `CCCCCCCCCCCCC(=O)O` registered a solubility of 0.154 mM (≈ 33 µg/mL).

Compound `O=C1NC(=O)C2C3C(C(O)(c4ccccc4)c4ccccn4)=CC(C3=C(c3ccccc3)c3ccccn3)C12` (stereo not given) returned a solubility of 0.117 mM (≈ 60 µg/mL).

As to `CNC(=O)Nc1nc2ccccc2s1`, the solubility amounted to 0.0579 mM (≈ 12 µg/mL).

`O=[N+]([O-])c1cc(Cl)c(Cl)c(Cl)c1Cl` yielded a solubility of 0.028 mM (≈ 7.3 µg/mL).

In the case of `CCC(Cl)[N+](=O)[O-]` (stereo not given), the solubility was found to be 64.8 mM (≈ 8000 µg/mL).

For `Oc1cccnc1`, the solubility is 350 mM (≈ 33300 µg/mL).

`Cc1ccc(Cl)cc1` returned a solubility of 0.837 mM (≈ 106 µg/mL).

As to `O=c1ccc2ccccc2[nH]1`, the solubility was 7.25 mM (≈ 1050 µg/mL).

Take `Nc1ccccc1C(=O)O`: the solubility worked out at 25.5 mM (≈ 3500 µg/mL).

`Clc1ccc(-c2ccc(Cl)c(Cl)c2Cl)cc1`: the solubility turned out to be 0.000133 mM (≈ 0.0389 µg/mL).

`CCOP(=S)(OCC)Oc1ccc(S(C)=O)cc1` (stereo not given): the solubility came out at 6.49 mM (≈ 2000 µg/mL).

`Clc1ccc2c(c1)Oc1c(Cl)c(Cl)c(Cl)c(Cl)c1O2` came in with a solubility of 3.37e-07 mM (≈ 0.00012 µg/mL).

In turn, `C#CC(C)N(C)C(=O)Nc1ccc(Cl)cc1` (stereo not given) displayed a solubility of 0.127 mM (≈ 30 µg/mL).

Turning to `O=C(O)CN(CP(=O)(O)O)CP(=O)(O)O`, the solubility came to 943 mM (≈ 248000 µg/mL).

Turning to `CCCCNC(=O)n1c(NC(=O)OC)nc2ccccc21`, the solubility came out at 0.0131 mM (≈ 3.8 µg/mL).

Compound `CC(Cl)C(C)Cl` (stereo not given) showed a solubility of 4.42 mM (≈ 562 µg/mL).

For the compound `CCCCC(C)(C)CCC`, the solubility came to 0.0155 mM (≈ 2.2 µg/mL).

As to `CC(C)(O)C(Cl)(Cl)Cl`, the solubility amounted to 45.1 mM (≈ 8000 µg/mL).

As for `CCOP(=S)(NC(C)C)Oc1ccccc1C(=O)OC(C)C` (stereo not given), the solubility amounted to 0.064 mM (≈ 22.1 µg/mL).

On to `O=c1nc[nH]c2nccnc12`, for which the solubility was found to be 33.8 mM (≈ 5000 µg/mL).

The compound `Oc1ccc(/N=N/c2ccccc2)cc1` showed a solubility of 0.454 mM (≈ 90 µg/mL).

Still in this data set, the particulars now being: 21 °C.
The compound `O=C(O)CCCCCCCCCCCCC(=O)O` yielded a solubility of 0.774 mM (≈ 200 µg/mL).

In turn, `Brc1cccc2ccccc12` registered a solubility of 0.045 mM (≈ 9.32 µg/mL).

In the case of `CN(C)[C@@H]1C(O)=C(C(N)=O)C(=O)[C@@]2(O)C(O)=C3C(=O)c4c(O)ccc(Cl)c4[C@@H](O)[C@H]3C[C@@H]12`, the solubility is 3.26 mM (≈ 1520 µg/mL).

The same data set, now with this note: 22 °C.
`OC[C@@H](O)[C@@H](O)CO` gave a solubility of 4990 mM (≈ 610000 µg/mL).

Compound `CCCC(C)C(=O)Nc1ccc(C)c(Cl)c1` (stereo not given) gave a solubility of 0.0355 mM (≈ 8.5 µg/mL).

Compound `O=C(c1ccccc1)c1c(O)cc(O)cc1O` returned a solubility of 13.5 mM (≈ 3100 µg/mL).

The compound `COC(=O)NS(=O)(=O)c1ccc(N)cc1` displayed a solubility of 21.7 mM (≈ 5000 µg/mL).

The data set is the same for the next values; noted with them: 23 °C.
As to `NC(=O)CC(N)C(=O)O` (stereo not given), the solubility stood at 172 mM (≈ 22700 µg/mL).

The data set is the same for the next values; noted with them: 24 °C.
Regarding `O=P(OC(CCl)CCl)(OC(CCl)CCl)OC(CCl)CCl`, the solubility turned out to be 0.0162 mM (≈ 7 µg/mL).

`CC(=O)OCCN1CCN(CCCN2c3ccccc3Sc3ccc(Cl)cc32)CC1` registered a solubility of 0.02 mM (≈ 8.92 µg/mL).

With `CN(C)CCCN1c2ccccc2CCc2ccccc21`, the solubility is 0.065 mM (≈ 18.2 µg/mL).

With `CC1CCCCC1C` (stereo not given), the solubility is 0.0748 mM (≈ 8.4 µg/mL).

In turn, `O=C(O)c1ccc(O)c(C(=O)O)c1` registered a solubility of 1.65 mM (≈ 300 µg/mL).

Take `Nc1cccc2nc3ccccc3cc12`: the solubility worked out at 0.06 mM (≈ 11.7 µg/mL).

Still in this data set, the particulars now being: 25 °C.
On to `Clc1ccc(-c2cccc(Cl)c2)cc1`, for which the solubility is 0.000398 mM (≈ 0.0888 µg/mL).

As for `C#CCCCCCC`, the solubility came out at 0.218 mM (≈ 24 µg/mL).

`c1ccsc1` gave a solubility of 35.8 mM (≈ 3010 µg/mL).

Values taken from the OPERA property sets (Mansouri et al. 2018).
